Source: PMC3759421, “Blocking Plasmodium falciparum Development via Dual Inhibition of Hemoglobin Degradation and the Ubiquitin Proteasome System by MG132” (PLoS ONE, 2013)
Peptide text beside a SMILES is read from it. * marks the point of attachment. Cbz = O=C(OCc1ccccc1)*

Tests used:
falcipain-2 (FP2) [1] = biological target: T1, falcipain-2 (FP2) (Plasmodium falciparum, UniProt Q8I6U4); experiment: biochemical; settings: read-out: FP2
T1 construct: gene FP2A; carboxy-terminus region of the prodomain (36 amino acid residues) and the entire mature protease domain
T1 sequence (Q8I6U4 208-484): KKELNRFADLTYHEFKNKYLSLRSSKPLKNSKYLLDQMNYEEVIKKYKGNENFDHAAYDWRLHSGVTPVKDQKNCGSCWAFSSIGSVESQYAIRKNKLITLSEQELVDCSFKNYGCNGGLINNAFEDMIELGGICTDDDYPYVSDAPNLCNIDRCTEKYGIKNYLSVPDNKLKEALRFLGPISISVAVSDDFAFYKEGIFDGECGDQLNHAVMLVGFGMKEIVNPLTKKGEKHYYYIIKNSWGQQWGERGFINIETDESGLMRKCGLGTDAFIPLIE
Procedure: recombinant enzyme inhibition, Z-LR-AMC hydrolysis progress curves (association rate constant); active site titration on falcipain-2 (FP2) | Concentrations of active FP2 and FP3 were determined by active site titration using E64

falcipain-3 (FP3) [2] = biological target: T2, falcipain-3 (FP3) (Plasmodium falciparum, UniProt Q8IIL0); experiment: recombinant enzyme inhibition, Z-LR-AMC hydrolysis progress curves (association rate constant); active site titration; type: biochemical; settings: read-out: FP3
T2 construct: carboxy-terminus region of the prodomain (35 amino acid residues) and the entire mature protease domain
T2 sequence (Q8IIL0 208-492): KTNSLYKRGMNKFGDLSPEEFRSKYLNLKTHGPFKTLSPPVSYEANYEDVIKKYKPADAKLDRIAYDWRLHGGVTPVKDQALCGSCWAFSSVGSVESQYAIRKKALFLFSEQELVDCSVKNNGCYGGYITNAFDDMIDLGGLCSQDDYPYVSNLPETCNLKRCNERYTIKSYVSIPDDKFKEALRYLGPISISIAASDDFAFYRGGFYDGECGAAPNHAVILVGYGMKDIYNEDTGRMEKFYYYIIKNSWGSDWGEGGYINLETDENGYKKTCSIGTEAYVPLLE
Source text: recombinant enzyme inhibition, Z-LR-AMC hydrolysis progress curves (association rate constant); active site titration on falcipain-3 (FP3) | MG132 and E64 inhibited hydrolysis of Z-LR-AMC by both enzymes (Figure 4B)

falcipain-3 (FP3) [3] = biological target: T2, falcipain-3 (FP3); experiment: recombinant enzyme inhibition, Z-LR-AMC hydrolysis progress curves (association rate constant); type: biochemical; settings: read-out: FP3
Source text: recombinant enzyme inhibition, Z-LR-AMC hydrolysis progress curves (association rate constant) on falcipain-3 (FP3) | MG132 and E64 inhibited hydrolysis of Z-LR-AMC by both enzymes (Figure 4B), confirming that MG132 is a falcipain inhibitor

falcipain-2 (FP2) [4] = biological target: T1, falcipain-2 (FP2); experiment: as above; type: biochemical; settings: read-out: FP2

Structure (SMILES)	kon (falcipain-2 (FP2) [1])	kon (falcipain-3 (FP3) [2])	kon (falcipain-3 (FP3) [3])	kon (falcipain-2 (FP2) [4])
CC(C)C[C@H](NC(=O)[C@H]1O[C@@H]1C(=O)O)C(=O)NCCCCN=C(N)N [E64, L-trans-epoxysuccinyl-leucyl-amido(4-guanidino)butane]	10300 M⁻¹ s⁻¹	4090 M⁻¹ s⁻¹		
CC(C)C[C@@H](C=O)NC(=O)[C@H](CC(C)C)NC(=O)[C@H](CC(C)C)NC(=O)OCc1ccccc1 [MG132] (Cbz-Leu-Leu-Leu-aldehyde)			412000 M⁻¹ s⁻¹	189000 M⁻¹ s⁻¹
